Results taken from PubChem BioAssay AID2202554 (NIEHS Division of Translational Toxicology (DTT)).
Results filed as inconclusive are left out. The source made the active and inactive calls. No rule for the calls is given here.

system: S. typhimurium/E. coli reverse mutation, colony counts; assay: Bacterial reverse mutation test (aka Ames test) summary data
Outline: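 S. typhimurium his⁻ strains (TA97–TA1538) and E. coli WP2 uvrA pKM101 trp⁻, dosed over a range with or without rat, hamster or mouse liver S9. Preincubated 20 min at 37° C (or plate incorporation), plated in agar, incubated usually two days. Revertant colonies counted against negative controls.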

Structure (SMILES)	outcome
O=C(O)c1cc(O)c2c(c1)[C@H]([C@H]1c3cc(C(=O)O)cc(O)c3C(=O)c3c(O[C@@H]4O[C@H](CO)[C@@H](O)[C@H](O)[C@H]4O)cccc31)c1cccc(O[C@@H]3O[C@H](CO)[C@@H](O)[C@H](O)[C@H]3O)c1C2=O	inactive; negative
CC(=O)c1ccncc1	inactive; negative
CCOC(C)=O	inactive; negative
CC[C@]12CCCN3CCc4c(n(c5ccccc45)[C@@](O)(C(=O)OC)C1)[C@@H]32	inactive; negative
O=C(OCC1CO1)c1cccc(C(=O)OCC2CO2)c1 (stereo unspecified)	active; positive
COCCOCCOC	inactive; negative
O=C(O)CC[N+](=O)[O-]	active; positive
Cc1c(O)cccc1O	inactive; negative
Cc1cc(-c2ccc(N=Nc3c(S(=O)(=O)O)cc4cc(S(=O)(=O)O)cc(O)c4c3O)c(C)c2)ccc1N=Nc1c(S(=O)(=O)O)cc2cc(S(=O)(=O)O)cc(O)c2c1O	inactive; negative
CCCCCCCCOP(=O)(OCCCCCCCC)OCCCCCCCC	inactive; negative
O=[N+]([O-])c1ccccc1O	inactive; negative
CCN(CC)c1ccc([N+](=O)[O-])cc1	active; positive
CNNCc1ccc(C(=O)NC(C)C)cc1	inactive; negative
OCC(CBr)(CBr)CBr	active; positive
Nc1ccc(F)cc1F	active; positive
Nc1ccc(Sc2ccc(N)cc2)cc1	active; positive
Cc1cc2nc3c(=O)[nH]c(=O)nc-3n(C[C@H](O)[C@H](O)[C@H](O)CO)c2cc1C	inactive; negative
CC(=O)c1c(C)c([N+](=O)[O-])c(C(C)(C)C)c([N+](=O)[O-])c1C	inactive; negative
N[C@@H](Cc1c[nH]c2ccc(O)cc12)C(=O)O	inactive; negative
O=[N+]([O-])c1cc(Cl)c(Cl)c(Cl)c1Cl	inactive; negative
CNN	inactive; negative
CNc1ccc(N(CCO)CCO)cc1[N+](=O)[O-]	active; positive
CNC(C)Cc1ccccc1 (stereo unspecified)	inactive; negative
CCC[CH2][Sn]([CH2]CCC)([CH2]CCC)[O][Sn]([CH2]CCC)([CH2]CCC)[CH2]CCC	inactive; negative
Cl/C=C\Cl	inactive; negative
[N-]=[N+]=[N-]	active; positive

Structure (SMILES)	outcome
ClCC1CO1 (stereo unspecified)	active; positive
CS(=O)(=O)c1ccc(C(=O)C2C(=O)CCCC2=O)c([N+](=O)[O-])c1	active; positive
Nc1ccccc1-c1ccccc1	active; positive
CCCCCCC=O	inactive; negative
Cc1ccccc1O	inactive; negative
CCN(CC)c1ccc(C(=C2C=CC(=[N+](CC)CC)C=C2)c2ccc(S(=O)(=O)O)cc2S(=O)(=O)[O-])cc1	active; positive
CC(=O)CC(C)(C)O	inactive; negative
CC(N)=S	inactive; negative
c1ccc2cc(Nc3ccc(Nc4ccc5ccccc5c4)cc3)ccc2c1	active; positive
CCOP(=S)(OCC)Oc1nc(Cl)c(Cl)cc1Cl	inactive; negative
COc1ccc(C(c2ccc(OC)cc2)C(Cl)(Cl)Cl)cc1	inactive; negative
C[CH2][Pb]([Cl])([CH2]C)[CH2]C	inactive; negative
c1ccc2c(c1)-c1cccc3c1c-2cc1ccccc13	active; positive
CCC[N+](=O)[O-]	inactive; negative
C=C(Cl)CCl	active; positive
Nc1cc(Cl)ccc1Cl	inactive; negative
ClC1=C(Cl)[C@]2(Cl)[C@H]3[C@H]([C@@H]4C=C[C@H]3C4)[C@@]1(Cl)C2(Cl)Cl	inactive; negative
O=C(O)C(Cl)(Cl)Cl	inactive; negative
NCCNc1cccc2ccccc12	active; positive
ClSC(Cl)(Cl)Cl	active; positive
FC(F)(F)c1ccccc1	inactive; negative
CNCCO	inactive; negative
O=[N+]([O-])c1cc([N+](=O)[O-])c2ccccc2c1	active; positive
O=C(O)c1cc(N=Nc2ccc([N+](=O)[O-])cc2)ccc1O	active; positive
CCc1cccc(C)c1N(C(=O)CCl)C(C)COC (stereo unspecified)	inactive; negative
O=C(O)CO	inactive; negative

Structure (SMILES)	outcome
COc1ccccc1O	inactive; negative
CC1=C(/C=C/C(C)=C/C=C/C(C)=C\C=O)C(C)(C)CCC1	active; weakly positive
C=CC(=O)OCC(CO)(COC(=O)C=C)COC(=O)C=C	inactive; negative
CCCCCCCCCCCCCCCCCCCCCCCCCCCCO	inactive; negative
O=[N+]([O-])c1cc(C(F)(F)F)cc([N+](=O)[O-])c1Cl	inactive; negative
CC(=O)Nc1cccc(N)c1	active; positive
O=NO	active; positive
Nc1cc(Cl)c([N+](=O)[O-])cc1O	active; positive
C1=CCCC=CCC1.C1=CCCC=CCC1.[Ni]	active; positive
FC(Cl)(Cl)C(F)(Cl)Cl	active; weakly positive
ClCCOCOCCCl	active; positive
Nc1ccc(Br)cc1	inactive; negative
CNC(=O)CSP(=S)(OC)OC	active; positive
COC(C)(C)C	inactive; negative
Cc1ccc(Nc2ccc(Nc3ccc(C)cc3S(=O)(=O)O)c3c2C(=O)c2ccccc2C3=O)c(S(=O)(=O)O)c1	active; weakly positive
[O]=[Cr](=[O])([OH])[O][Cr](=[O])(=[O])[OH]	active; positive
O=[N+]([O-])CCO	active; positive
c1ccc2sc(SSc3nc4ccccc4s3)nc2c1	active; positive
Cc1ccccc1C#N	inactive; negative
BrC(Br)Br	active; positive
C=CC(=O)OCCOCCOC(=O)C=C	inactive; negative
CC=CC=O	active; positive
CN1CSC(=S)N(C)C1	active; weakly positive
CCCCCCCCCCCCOS(=O)(=O)O	inactive; negative
Nc1c(Br)cc([N+](=O)[O-])cc1[N+](=O)[O-]	active; positive
C=CCBr	active; positive

Structure (SMILES)	outcome
[Co]	active; positive
Clc1ccc(COC(Cn2ccnc2)c2ccc(Cl)cc2Cl)cc1 (stereo unspecified)	inactive; negative
O.O.O.O.O.O.O=[N+]([O-])[O-].O=[N+]([O-])[O-].O=[N+]([O-])[O-].[La+3]	inactive; negative
Oc1ccc(Cl)cc1Cc1cc(Cl)ccc1O	active; positive
C=CCNC(=S)NCC=C	inactive; negative
Cc1ccc(N=Nc2c(O)c(S(=O)(=O)O)cc3ccc(S(=O)(=O)O)cc23)c(C)c1	active; weakly positive
CCCCCCCC/C=C\CCCCCCCC(=O)O (tested in a mixture with another compound)	inactive; negative
O=C1C=CCCC1	inactive; negative
C=C(C)C(=O)OC(C)C	inactive; negative
N#CCCCCC#N	inactive; negative
CCCCN1CCCCC1C(=O)Nc1c(C)cccc1C (stereo unspecified)	inactive; negative
Nc1ccc(-c2ccc(N)cc2S(=O)(=O)O)c(S(=O)(=O)O)c1	inactive; negative
ClC/C=C/CCl	active; positive
O=C(O)c1ccc(C(=O)O)cc1	inactive; negative
Clc1ccc(C(c2ccccc2Cl)C(Cl)Cl)cc1 (stereo unspecified)	inactive; negative
O=S1OCC2C(CO1)C1(Cl)C(Cl)=C(Cl)C2(Cl)C1(Cl)Cl (stereo unspecified)	inactive; negative
OCC1CO1 (stereo unspecified)	active; positive
CCS(=O)CCSP(=O)(OC)OC (stereo unspecified)	active; positive
COC(=O)Nc1nc2ccccc2[nH]1	active; positive
OCc1c[nH]c2ccccc12	active; positive
Cc1ccc(N=C=O)cc1N=C=O	active; positive
O=C1C=CC(=O)C=C1	inactive; negative
N#CC(Cl)Cl	active; positive
OC[C@H]1O[C@@H](Oc2ccc(O)cc2)[C@H](O)[C@@H](O)[C@@H]1O	inactive; negative
O=C(O)c1ccccc1C(=O)O	inactive; negative
Cc1cc(O)c2c(c1)C(=O)c1cc(O)cc(O)c1C2=O	active; positive

Structure (SMILES)	outcome
[O]=[V]([OH])([OH])[OH]	inactive; negative
O[C@H]([C@H](O)[C@@H](O)CBr)[C@H](O)CBr	active; positive
N#CCCO	inactive; negative
CCCCCCN	inactive; negative
C=C(Cl)Cl	inactive; negative
Cc1cccc(C)c1O	inactive; negative
ClC(Cl)C(Cl)(Cl)Cl	inactive; negative
CS(=O)(=O)c1ccc(O)c(N)c1	inactive; negative
Cc1ccccc1Br	inactive; negative
N#C/C(N)=C(/N)C#N	inactive; negative
S=P(N1CC1)(N1CC1)N1CC1	active; positive
O=CNc1nc(-c2ccc([N+](=O)[O-])o2)cs1	active; positive
CCCCC(CC)CNCC(CC)CCCC (stereo unspecified)	inactive; negative
Nc1ccc([As](=O)(O)O)cc1	inactive; negative
COC(=O)C1CCC(C)CC1 (stereo unspecified)	inactive; negative
O=C(O)c1ccc(Cl)cc1Cl	inactive; negative
COC(=O)c1ccccc1O	active; weakly positive
CC(C)CNCC(C)C	inactive; negative
CNc1ccccc1	inactive; negative
CCCCN(CCO)CCCC	inactive; negative
OCC(Cl)CCl (stereo unspecified)	active; positive
O=[N+]([O-])c1ccccc1C(F)(F)F	inactive; negative
